# Laboratory results taken from patent publication US20220098154A1 (IDEAYA Biosciences, Inc., priority 2019, published 2022).
# pIC50: −log10 of the molar value.
# Target: T1, Pol theta polymerase domain (residues 1819-2590) (Homo sapiens, UniProt O75417)
# T1 construct: Pol theta polymerase domain (residues 1819-2590)
# T1 sequence (O75417 1819-2590): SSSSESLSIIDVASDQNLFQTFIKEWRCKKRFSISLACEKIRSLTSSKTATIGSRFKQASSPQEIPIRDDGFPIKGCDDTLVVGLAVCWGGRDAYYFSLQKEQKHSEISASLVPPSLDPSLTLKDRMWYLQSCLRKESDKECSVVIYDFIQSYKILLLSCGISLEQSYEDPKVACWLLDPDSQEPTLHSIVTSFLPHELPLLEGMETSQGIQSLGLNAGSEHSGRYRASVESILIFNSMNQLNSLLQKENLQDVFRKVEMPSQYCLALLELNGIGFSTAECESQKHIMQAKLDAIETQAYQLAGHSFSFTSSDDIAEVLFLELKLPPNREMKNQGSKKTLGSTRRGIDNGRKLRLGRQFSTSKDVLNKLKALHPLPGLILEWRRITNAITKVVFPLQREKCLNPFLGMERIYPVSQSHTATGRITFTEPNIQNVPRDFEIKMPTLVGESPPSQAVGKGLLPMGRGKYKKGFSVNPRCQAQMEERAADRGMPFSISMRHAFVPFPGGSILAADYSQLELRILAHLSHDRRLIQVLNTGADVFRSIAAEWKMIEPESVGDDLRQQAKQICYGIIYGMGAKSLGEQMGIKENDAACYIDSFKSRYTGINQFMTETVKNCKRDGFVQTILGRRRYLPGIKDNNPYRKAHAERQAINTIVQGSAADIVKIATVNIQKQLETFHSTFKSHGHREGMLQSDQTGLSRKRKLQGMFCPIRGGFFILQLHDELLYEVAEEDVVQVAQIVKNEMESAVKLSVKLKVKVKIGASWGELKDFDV
# Test: Primer extension assay: inhibition of polymerase activity of Pol theta (molecular beacon fluorescence)
# Format: biochemical
# Conditions: Pol theta polymerase domain 4 nM; 15 min pre-incubation; fluorescence change over 30 min (ex 485 nm, em 535 nm); 11-point dilution series
# Description: The ability of the compounds of Formula (I) to inhibit polymerase activity of Pol theta was determined using the assay described below.
# A mixture of 20 uL of Pol theta polymerase domain (residues 1819-2590) at a final concentration of 4 nM in assay buffer (20 m M TRIS, pH 7.80, 50 mM KCl, 10 mM MgCl2, 1 mM DTT, 0.01% BSA, 0.01% Tween20) was added to test compounds (11-point dilution series of test compounds) except the low control wells without test compounds. The above enzyme and test compound inhibitor mixture was then incubated at room temperature for 15 min. An equal volume (20 μl) of dNTP substrate mixture (48 μM) and primed molecular beacon DNA (obtained by annealing template SEQ ID NO 2: (5′-CCTTCCTCCCGTGTCTTG-TACCTTCCCGTCA-GGAGGAAGG-3′) with 5′-TAMRA and 3′-BHQ and primer DNA (SEQ ID NO: 3; 5′-GACGGGAAGG-3′) in 10 mM Tris-HCl pH 8.0, 100 mM NaCl buffer) (96 nM) in assay buffer was added to all the test wells. The inhibition activity was measured by monitoring the fluorescence change over 30 min at 535 nm upon excitation at 485 nm. The high control (DMSO with enzyme) with high fluorescence intensity represents no inhibition of polymerase reaction while the low control (DMSO with buffer) with low fluorescence intensity represents full inhibition of polymerase activity. Slope of the reaction progress curves were used to calculate the rate of polymerization. The rates were used to determine the percent inhibition using a four-parameter inhibition model to generate IC50, Hill slope and max inhibition.
row,pIC50,SMILES
1,6.30 to 6.70,"Cc1cc(OCC(=O)N(C)c2ccccc2)nc(C)c1Cl (racemic) [Example 36, 2-(5-chloro-4,6-dimethylpyridin-2-yloxy)-N-methyl-N-phenyl-acetamide]"
2,6.00 to 6.30,"CN(C(=O)CNc1nc(C(F)(F)F)cc(C(F)(F)F)c1C#N)c1cccc(C(N)=O)c1 [Example 1, 3-(2-(3-cyano-4,6-bis(trifluoromethyl)pyridin-2-yl-amino)-N-methylacetamido)benzamide]"
3,> 6.70,"CN(C(=O)CNc1nc(C(F)(F)F)cc(C(F)(F)F)n1)c1ccc(F)cc1 [Example 2, 2-(4,6-bis(trifluoromethyl)pyrimidin-2-ylamino)-N-(4-fluoro-phenyl)-N-methylacetamide]"
4,6.30 to 6.70,"CN(C(=O)CNc1nc(C(F)(F)F)cc(C(F)(F)F)c1C#N)c1ccc(C#N)cc1 [Example 3, 2-((3-cyano-4,6-bis(trifluoromethyl)pyridin-2-yl)-amino)-N-(4-cyanophenyl)-N-methylacetamide]"
5,> 6.70,"N#Cc1c(C(F)(F)F)cc(C(F)(F)F)nc1NCC(=O)N(c1ccc(F)cc1)C1CC1 [Example 4, 2-((3-cyano-4,6-bis(trifluoromethyl)pyridin-2-yl)-amino)-N-cyclopropyl-N-(4-fluorophenyl)acetamide]"
6,> 6.70,"CN(C(=O)CNc1nc(C(F)(F)F)cc(C(F)(F)F)c1C#N)c1ccc(OC2CC2)cc1 [Example 5, 2-((3-cyano-4,6-bis(trifluoromethyl)pyridin-2-yl)-amino)-N-(4-cyclopropoxyphenyl)-N-methyl-acetamide]"
7,> 6.70,"CN(C(=O)CNc1nc(C(F)(F)F)cc(C(F)(F)F)c1C#N)c1ccc(OC(F)(F)F)cc1 [Example 6, 2-((3-cyano-4,6-bis(trifluoromethyl)pyridin-2-yl)-amino)-N-methyl-N-(4-(trifluoromethoxy)phenyl)-acetamide]"
8,> 6.70,"CN(C(=O)CNc1cc(C(F)(F)F)cc(C(F)(F)F)n1)c1ccc(F)cc1 [Example 7, 2-((4,6-bis(trifluoromethyl)pyridin-2-yl)amino)-N-(4-fluoro-phenyl)-N-methylacetamide]"
9,> 6.70,"N#Cc1c(C(F)(F)F)cc(C(F)(F)F)nc1NCC(=O)N(CC(F)(F)F)c1ccc(F)cc1 [Example 8, 2-(3-cyano-4,6-bis(trifluoromethyl)pyridin-2-yl-amino)-N-(4-fluorophenyl)-N-(2,2,2-trifluoroethyl)-acetamide]"
10,> 6.70,"COc1ccc(N(C)C(=O)CNc2nc(C(F)(F)F)cc(C(F)(F)F)c2C#N)cc1 [Example 9, 2-[[3-cyano-4,6-bis(trifluoromethyl)pyridin-2-yl]-amino]-N-(4-methoxyphenyl)-N-methylacetamide]"
11,> 6.70,"CN(C(=O)CNc1nc(C(F)(F)F)cc(C(F)(F)F)c1C#N)c1ccc(F)cc1 [Example 10, 2-(3-cyano-4,6-bis(trifluoromethyl)pyridin-2-yl-amino)-N-(4-fluorophenyl)-N-methylacetamide]"
12,> 6.70,"CN(C(=O)CNc1cc(Cl)cc(C(F)(F)F)c1C#N)c1ccc(F)cc1 [Example 11, 2-[[5-chloro-2-cyano-3-(trifluoromethyl)phenyl]-amino]-N-(4-fluorophenyl)-N-methylacetamide]"
13,> 6.70,"CN(C(=O)CNc1cc(C(F)(F)F)cc(C(F)(F)F)c1)c1ccc(F)cc1 [Example 12, 2-((3,5-bis(trifluoromethyl)phenyl)amino)-N-(4-fluorophenyl)-N-methylacetamide]"
14,> 6.70,"CN(C(=O)CNc1cc(Cl)cc(C(F)(F)F)c1)c1ccc(F)cc1 [Example 13, 3-[[3-chloro-5-(trifluoromethyl)phenyl]amino]-N-(4-fluoro-phenyl)-N-methylacetamide]"
15,6.30 to 6.70,"CN(C(=O)COc1cc(Cl)cc(C(F)(F)F)c1)c1ccc(F)cc1 [Example 14, 2-[3-chloro-5-(trifluoromethyl)phenoxy]-N-(4-fluoro-phenyl)-N-methylacetamide]"
16,6.30 to 6.70,"Cc1nc(N[C@@H](CCO)C(=O)N(C)c2ccc(F)cc2)c(C#N)c(C)c1Cl [Example 15, (S)-2-(5-chloro-3-cyano-4,6-dimethylpyridin-2-yl-amino)-N-(4-fluorophenyl)-4-hydroxy-N-methyl-butanamide]"

row,pIC50,SMILES
1,6.30 to 6.70,"Cc1nc(N[C@@H](CC(N)=O)C(=O)N(C)c2ccc(F)cc2)c(C#N)c(C)c1Cl [Example 18, (S)-2-(5-chloro-3-cyano-4,6-dimethylpyridin-2-yl-amino)-N1-(4-fluorophenyl)-N1-methylsuccinamide]"
2,> 6.70,"Cc1nc(NCC(=O)N(C)c2ccc(F)cc2)c(C#N)c2ccccc12 [Example 19, 2-[(4-cyano-1-methylisoquinolin-3-yl)amino]-N-(4-fluorophenyl)-N-methylacetamide]"
3,6.30 to 6.70,"CN(C(=O)CNc1cc(Cl)cc(Br)c1)c1ccc(F)cc1 [Example 20, 2-[(3-bromo-5-chlorophenyl)amino]-N-(4-fluoro-phenyl)-N-methylacetamide]"
4,6.30 to 6.70,"Cc1nc(NCC(=O)N(C)c2cccc(C#N)c2)c(C#N)c(C)c1Cl [Example 21, 2-((5-chloro-3-cyano-4,6-dimethylpyridin-2-yl)-amino)-N-(3-cyanophenyl)-N-methylacetamide]"
5,> 6.70,"COc1ccc(N(C)C(=O)CNc2nc(C)c(Cl)c(C)c2C#N)cc1 [Example 22, 2-(5-chloro-3-cyano-4,6-dimethylpyridin-2-ylamino)-N-(4-methoxyphenyl)-N-methylacetamide]"
6,> 6.70,"Cc1nc(NCC(=O)N(C)c2ccc(F)cc2)c(Cl)c(C)c1Cl [Example 23, 2-(3,5-dichloro-4,6-dimethylpyridin-2-ylamino)-N-(4-fluoro-phenyl)-N-methylacetamide]"
7,6.00 to 6.30,"CN(C(=O)CNc1ncc2c(c1C#N)CCC2)c1ccc(F)cc1 [Example 24, 2-(4-cyano-6,7-dihydro-5H-cyclopenta[c]pyridin-3-ylamino)-N-(4-fluorophenyl)-N-methylacetamide]"
8,> 6.70,"Cc1nc(N[C@@H](C)C(=O)N(C)c2ccc(F)cc2)c(C#N)c(C)c1Cl [Example 25, (S)-2-((5-chloro-3-cyano-4,6-dimethylpyridin-2-yl)-amino)-N-(4-fluorophenyl)-N-methylpropanamide]"
9,> 6.70,"Cc1nc(NCC(=O)N(C)c2ccc(F)cc2F)c(C#N)c(C)c1Cl [Example 26, 2-((5-chloro-3-cyano-4,6-dimethylpyridin-2-yl)-amino)-N-(2,4-difluorophenyl)-N-methylacetamide]"
10,> 6.70,"Cc1c(C#N)c(NCC(=O)N(C)c2ccc(F)cc2)nc2c1CCC2 [Example 27, 2-([3-cyano-4-methyl-5H,6H,7H-cyclopenta[b]-pyridin-2-yl]amino)-N-(4-fluorophenyl)-N-methylacetamide]"
11,> 6.70,"Cc1nc(NCC(=O)N(C)c2ccc(F)cc2)c(C#N)c2c1CCC2 [Example 28, 2-(4-cyano-1-methyl-6,7-dihydro-5H-cyclopenta[c]-pyridin-3-ylamino)-N-(4-fluorophenyl)-N-methylacetamide]"
12,6.00 to 6.30,"Cc1c(C#N)c(NCC(=O)N(C)c2ccc(F)cc2)nc2ccccc12 [Example 29, 2-[(3-cyano-4-methylquinolin-2-yl)amino]-N-(4-fluorophenyl)-N-methylacetamide]"
13,6.30 to 6.70,"Cc1nc(NCC(=O)N(c2ccc(Cl)cc2)C(C)C)c(C#N)c(C)c1Cl [Example 30, 2-[(5-chloro-3-cyano-4,6-dimethylpyridin-2-yl)-amino]-N-(4-chlorophenyl)-N-(propan-2-yl)-acetamide]"
14,6.00 to 6.30,"CN(C(=O)CNc1cc(Cl)cc(Cl)c1)c1ccc(F)cc1 [Example 31, 2-[(3,5-dichlorophenyl)amino]-N-(4-fluorophenyl)-N-methyl-acetamide]"
15,> 6.70,"Cc1nc(NCC(=O)N(C)c2ccc(Cl)c(Cl)c2)c(C#N)c(C)c1Cl [Example 32, 2-(5-chloro-3-cyano-4,6-dimethylpyridin-2-ylamino)-N-(3,4-dichlorophenyl)-N-methylacetamide]"
